Consider 3 compounds from paper PMC6713424 (Journal of Medicinal Chemistry, 2019).

Entries after “also recorded” stand apart in the source; their conditions may differ.

For assay [1], the system named is HSC-2 human oral cancer cells. In words: MTT cell proliferation assay in HSC-2 cells. It counts as cell-based. The conditions noted are these: HSC-2, 1-100 μM, 24, 48 and 72 h. Background: Formazan colour is commonly taken as a measure of viable cells.
The subject of assay [2] is NNMT activity (MNA production) in HSC-2 cells. In words: Cellular MNA levels in HSC-2 cells. It counts as cell-based, human. The conditions noted are these: HSC-2, 100 μM, 72 h; same effect in DMSO control.

Take `NC(=O)c1cccc(CN(CC[C@H](N)C(=O)O)C[C@H]2O[C@@H](n3cnc4c(N)ncnc43)[C@H](O)[C@@H]2O)c1` [Compound 1]: the “effect on cell proliferation (in words)” value in assay [1] is reported as “not significantly inhibited”.
For the compound `Nc1ncnc2c1ncn2[C@@H]1O[C@H](CN(CC[C@H](N)C(=O)O)Cc2ccc3ccccc3c2)[C@@H](O)[C@H]1O` [Compound 78, (S)-2-Amino-4-((((2R,3S,4R,5R)-5-(6-amino-9H-purin-9-yl)-3,4-dihydroxytetrahydrofuran-2-yl)methyl)(naphthalen-2-ylmethyl)amino)butanoic Acid], the “effect on cell proliferation (in words)” value in assay [1] was “notable decrease in cell proliferation; also recorded: significant inhibitory effect on cell proliferation”. For the same compound, the “cellular MNA production (in words)” value in assay [2] is recorded as “increase in cellular MNA production”.
For `Nc1ncnc2c1ncn2[C@@H]1O[C@H](CN(CCC[C@H](N)C(=O)O)Cc2ccc3ccccc3c2)[C@@H](O)[C@H]1O` [Compound 81, (S)-2-Amino-5-((((2R,3S,4R,5R)-5-(6-amino-9H-purin-9-yl)-3,4-dihydroxytetrahydrofuran-2-yl)methyl)(naphthalen-2-ylmethyl)amino)pentanoic Acid], in assay [1], the “effect on cell proliferation (in words)” value is given as “not significantly inhibited”.
